Source: US12404289B2 (Gilead Sciences, Inc., priority 2020, dated 2025)

What follows are molecules tested on SARS-CoV-2 (assay: SARS-CoV-2 antiviral assay (A549-hACE2, Nano luciferase)). Conditions: A549-hACE2 cells, SARS-CoV2-Nano, MOI 0.025, 48 h; Table 4; read-out: EC50 SARS CoV2.
Type: cell-based
CCC(CC)COC(=O)[C@H](C)NP(=O)(OC[C@H]1O[C@@](C#N)(c2ccc3c(N)ncnn23)[C@H](O)[C@@H]1O)Oc1ccccn1 (single isomer, unassigned) [Example 175a] was tested, and the EC50 was 3360 nM.

The molecules below were run on Respiratory syncytial virus (RSV) strain A2 (assay: Hep-2 RSV2 384-well assay (EC50-HEP2-384)). Conditions: human respiratory syncytial virus, HEp-2, 96 h, HEp-2 cells, RSV A2, MOI=4, 4 days, Table 3.
Type: cell-based
CCC(CC)COC(=O)[C@H](C)NP(=O)(OC[C@H]1O[C@@](C#N)(c2ccc3c(N)ncnn23)[C@H](O)[C@@H]1O)Oc1ccccn1 (single isomer, unassigned) [Example 175a] gave an EC50 of 5000 nM. CC(C)C(=O)O[C@H]1[C@@H](OC(=O)C(C)C)[C@](C#N)(c2ccc3c(N)ncnn23)O[C@@H]1COP(=O)(N[C@@H](C)C(=O)OC1CCCCC1)Oc1ccc(C(C)(C)C)cc1 (stereo partly drawn) [Example 149, (2R,3R,4R,5R)-2-(4-aminopyrrolo[2,1-f][1,2,4]triazin-7-yl)-5-((((4-(tert-butyl)phenoxy)(((S)-1-(cyclohexyloxy)-1-oxopropan-2-yl)amino)phosphoryl)oxy)methyl)-2-cyanotetrahydrofuran-3,4-diyl bis(2-methylpropanoate)] gave an EC50 of 99.4 nM. With COCCOC(=O)[C@H](C)NP(=O)(OC[C@H]1O[C@@](C#N)(c2ccc3c(N)ncnn23)[C@H](OC(C)=O)[C@@H]1OC(C)=O)Oc1ccc(C(C)(C)C)cc1 (stereo partly drawn) [Example 150, (2R,3R,4R,5R)-2-(4-aminopyrrolo[2,1-f][1,2,4]triazin-7-yl)-5-((((4-(tert-butyl)phenoxy)(((S)-1-(2-methoxyethoxy)-1-oxopropan-2-yl)amino)phosphoryl)oxy)methyl)-2-cyanotetrahydrofuran-3,4-diyl Diacetate] the EC50 was 78.2 nM. COCCOC(=O)[C@H](C)NP(=O)(OC[C@H]1O[C@@](C#N)(c2ccc3c(N)ncnn23)[C@H](OC(=O)C(C)C)[C@@H]1OC(=O)C(C)C)Oc1ccc(C(C)(C)C)cc1 (stereo partly drawn) [Example 151, (2R,3R,4R,5R)-2-(4-aminopyrrolo[2,1-f][1,2,4]triazin-7-yl)-5-((((4-(tert-butyl)phenoxy)(((S)-1-(2-methoxyethoxy)-1-oxopropan-2-yl)amino)phosphoryl)oxy)methyl)-2-cyanotetrahydrofuran-3,4-diyl bis(2-methylpropanoate)] showed an EC50 of 55.6 nM. For CCC(CC)COC(=O)[C@H](C)NP(=O)(OC[C@H]1O[C@@](C#N)(c2ccc3c(N)ncnn23)[C@H](OC(C)=O)[C@@H]1OC(C)=O)Oc1ccc(OC2CCCCC2)cc1 (stereo partly drawn) [Example 152, (2R,3R,4R,5R)-2-(4-aminopyrrolo[2,1-f][1,2,4]triazin-7-yl)-2-cyano-5-((((4-(cyclohexyloxy)phenoxy)(((S)-1-(2-ethylbutoxy)-1-oxopropan-2-yl)amino)phosphoryl)oxy)methyl)tetrahydrofuran-3,4-diyl Diacetate], the EC50 was 211 nM. Work on CCC(CC)COC(=O)[C@H](C)NP(=O)(OC[C@H]1O[C@@](C#N)(c2ccc3c(N)ncnn23)[C@H](OC(=O)C(C)C)[C@@H]1OC(=O)C(C)C)Oc1ccc(OC2CCCCC2)cc1 (stereo partly drawn) [Example 153, (2R,3R,4R,5R)-2-(4-aminopyrrolo[2,1-f][1,2,4]triazin-7-yl)-2-cyano-5-((((4-(cyclohexyloxy)phenoxy)(((S)-1-(2-ethylbutoxy)-1-oxopropan-2-yl)amino)phosphoryl)oxy)methyl)tetrahydrofuran-3,4-diyl bis(2-methylpropanoate)] yielded an EC50 of 270 nM. For COC(C)COC(=O)[C@H](C)NP(=O)(OC[C@H]1O[C@@](C#N)(c2ccc3c(N)ncnn23)[C@H](O)[C@@H]1O)Oc1ccc(C(C)(C)C)cc1 (stereo partly drawn) [Example 155, 2-methoxypropyl ((((2R,3S,4R,5R)-5-(4-aminopyrrolo[2,1-f][1,2,4]triazin-7-yl)-5-cyano-3,4-dihydroxytetrahydrofuran-2-yl)methoxy)(4-(tert-butyl)phenoxy)phosphoryl)-L-alaninate], the EC50 was 683 nM. CCOC(=O)[C@H](C)NP(=O)(OC[C@H]1O[C@@](C#N)(c2ccc3c(N)ncnn23)[C@H](OC(C)=O)[C@@H]1OC(C)=O)Oc1ccc(C(C)(C)C)cc1 (stereo partly drawn) [Example 157, (2R,3R,4R,5R)-2-(4-aminopyrrolo[2,1-f][1,2,4]triazin-7-yl)-5-((((4-(tert-butyl)phenoxy)(((S)-1-ethoxy-1-oxopropan-2-yl)amino)phosphoryl)oxy)methyl)-2-cyanotetrahydrofuran-3,4-diyl Diacetate] showed an EC50 of 79.5 nM. CCOC(=O)[C@H](C)NP(=O)(OC[C@H]1O[C@@](C#N)(c2ccc3c(N)ncnn23)[C@H](OC(=O)CC(C)C)[C@@H]1OC(=O)CC(C)C)Oc1ccc(C(C)(C)C)cc1 (stereo partly drawn) [Example 158, (2R,3R,4R,5R)-2-(4-aminopyrrolo[2,1-f][1,2,4]triazin-7-yl)-5-((((4-(tert-butyl)phenoxy)(((S)-1-ethoxy-1-oxopropan-2-yl)amino)phosphoryl)oxy)methyl)-2-cyanotetrahydrofuran-3,4-diyl bis(3-methylbutanoate)] showed an EC50 of 272 nM. Molecule CCC(C)(C)CCOC(=O)[C@H](C)NP(=O)(OC[C@H]1O[C@@](C#N)(c2ccc3c(N)ncnn23)[C@H](OC(=O)C(C)C)[C@@H]1OC(=O)C(C)C)Oc1ccc(C(C)(C)C)cc1 (stereo partly drawn) [Example 160, (2R,3R,4R,5R)-2-(4-aminopyrrolo[2,1-f][1,2,4]triazin-7-yl)-5-((((4-(tert-butyl)phenoxy)(((S)-1-((3,3-dimethylpentyl)oxy)-1-oxopropan-2-yl)amino)phosphoryl)oxy)methyl)-2-cyanotetrahydrofuran-3,4-diyl bis(2-methylpropanoate)] has an EC50 of 219 nM. Work on COC(C)COC(=O)[C@H](C)NP(=O)(OC[C@H]1O[C@@](C#N)(c2ccc3c(N)ncnn23)[C@H](OC(C)=O)[C@@H]1OC(C)=O)Oc1ccc(C(C)(C)C)cc1 (stereo partly drawn) [Example 161, (2R,3R,4R,5R)-2-(4-aminopyrrolo[2,1-f][1,2,4]triazin-7-yl)-5-((((4-(tert-butyl)phenoxy)(((2S)-1-(2-methoxypropoxy)-1-oxopropan-2-yl)amino)phosphoryl)oxy)methyl)-2-cyanotetrahydrofuran-3,4-diyl Diacetate] yielded an EC50 of 113 nM. COC(C)COC(=O)[C@H](C)NP(=O)(OC[C@H]1O[C@@](C#N)(c2ccc3c(N)ncnn23)[C@H](OC(=O)C(C)C)[C@@H]1OC(=O)C(C)C)Oc1ccc(C(C)(C)C)cc1 (stereo partly drawn) [Example 162, (2R,3R,4R,5R)-2-(4-aminopyrrolo[2,1-f][1,2,4]triazin-7-yl)-5-((((4-(tert-butyl)phenoxy)(((2S)-1-(2-methoxypropoxy)-1-oxopropan-2-yl)amino)phosphoryl)oxy)methyl)-2-cyanotetrahydrofuran-3,4-diyl bis(2-methylpropanoate)] showed an EC50 of 72.5 nM. Work on CC(C)C(=O)O[C@H]1[C@@H](OC(=O)C(C)C)[C@](C#N)(c2ccc3c(N)ncnn23)O[C@@H]1COP(=O)(N[C@@H](C)C(=O)OCC1CCCCC1)Oc1ccc(C(C)(C)C)cc1 (stereo partly drawn) [Example 164, (2R,3R,4R,5R)-2-(4-aminopyrrolo[2,1-f][1,2,4]triazin-7-yl)-5-((((4-(tert-butyl)phenoxy)(((S)-1-(cyclohexylmethoxy)-1-oxopropan-2-yl)amino)phosphoryl)oxy)methyl)-2-cyanotetrahydrofuran-3,4-diyl bis(2-methylpropanoate)] yielded an EC50 of 107 nM. CC(C)C(=O)O[C@H]1[C@@H](OC(=O)C(C)C)[C@](C#N)(c2ccc3c(N)ncnn23)O[C@@H]1COP(=O)(N[C@@H](C)CC(=O)OC1CCC1)Oc1ccc(C(C)(C)C)cc1 (stereo partly drawn) [Example 167, (2R,3R,4R,5R)-2-(4-aminopyrrolo[2,1-f][1,2,4]triazin-7-yl)-5-((((4-(tert-butyl)phenoxy)(((S)-4-cyclobutoxy-4-oxobutan-2-yl)amino)phosphoryl)oxy)methyl)-2-cyanotetrahydrofuran-3,4-diyl bis(2-methylpropanoate)] showed an EC50 of 5000 nM.
